Results reported in paper PMC4931907 (eLife, 2016).

Tests used:
[1] = cited from earlier work
p300 [2] = molecular target: T1, p300 (Homo sapiens, UniProt Q09472); experiment: p300 inhibition by direct microfluidic mobility shift analysis, H4(3–14) peptide; type: biochemical; settings: microfluidic mobility shift, H4(3–14) peptide, 5 μM acetyl-CoA
T1 construct: in vitro acetylation assays with purified histones and a recombinant p300 catalytic domain; purchased Enzo Life Sciences
T1 sequence (Q09472 1287-1663 limits assumed): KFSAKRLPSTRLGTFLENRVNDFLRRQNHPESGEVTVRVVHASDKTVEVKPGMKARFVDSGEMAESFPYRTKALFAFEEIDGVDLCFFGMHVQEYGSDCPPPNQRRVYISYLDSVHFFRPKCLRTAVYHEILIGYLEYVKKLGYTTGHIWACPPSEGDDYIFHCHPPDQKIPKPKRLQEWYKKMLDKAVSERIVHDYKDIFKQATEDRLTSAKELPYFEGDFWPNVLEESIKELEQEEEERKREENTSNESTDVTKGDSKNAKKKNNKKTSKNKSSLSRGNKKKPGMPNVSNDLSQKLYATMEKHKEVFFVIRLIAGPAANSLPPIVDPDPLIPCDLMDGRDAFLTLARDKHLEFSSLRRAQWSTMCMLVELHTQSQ
Procedure: (§1) Figure 1. Salicylate inhibits CBP/p300 in vitro. (A) Recombinant p300, CBP, GCN5, or PCAF and histones were incubated with ^14C-labeled acetyl-CoA with or without sodium salicylate, separated by SDS-PAGE, analyzed by autoradiography, and quantified with Image J software. Acetylation levels are relative to those in untreated controls. (B) Thermal stability assay for sodium salicylate binding to the p300 HAT domain. Tm, melting temperature. (C) and (D) Lineweaver-Burk plots showing kinetic analysis of p300 acetyltransferase inhibition by sodium salicylate. Histone acetylation was measured with several concentrations of acetyl-CoA (C) or histone (D) in the presence or absence of sodium salicylate. DOI: http://dx.doi.org/10.7554/eLife.11156.003 Figure 1—figure supplement 1. […] (A) Dose-response data for inhibition of p300 by salicylate and salicyl-CoA. Acetylation of an H4(3–14) peptide was monitored using direct microfluidic mobility shift analysis as previously described ([Montgomery et al., 2014]; [Fanslau et al., 2010]). Error is given as the 95% confidence interval. […] Error is given as the 95% confidence interval. DOI: http://dx.doi.org/10.7554/eLife.11156.004 [drawing 1] TEXT PRINTED IN THE PICTURE: (A) Salicylate: p300 IC50 (mM): 6.12; Confidence Interval [CI95] (mM): 5.2–7.2 | (A) Salicyl-CoA: p300 IC50 (mM): […]; Confidence Interval [CI95] […] (mM): 0.78–1.4 | (B) Diflunisal-CoA: p300 IC50 (mM): 0.02; Confidence Interval [CI95] (mM): 0.02–0.03
Salicyl-CoA and diflunisal-CoA were synthesized from their parent carboxylic acids and HPLC purified according to previously reported methods ([Padmakumar et al., 1997]). The purity of each acyl-CoA was confirmed by analytical HPLC prior immediately prior to utilization ([Montgomery et al., 2014]; [Fanslau et al., 2010]). P300 inhibition assays were performed using direct microfluidic mobility shift analysis as previously described. Briefly, p300 reaction mixture (50 mM HEPES, pH 7.5, 50 mM NaCl, 2 mM EDTA, 2 mM DTT, 0.05% Triton-X-100, 50 nM p300, 2 μM FITC-histone H4 peptide) was plated in 384-well plates and allowed to equilibrate at room temperature for 10 min. Reactions were initiated by addition of acetyl-CoA (final concentration = 5 μM), bringing the final assay volume to 30 μL. Assays were quenched after 10 min (<15% product accumulation) by addition of 5 μL of 0.5 M neutral hydroxylamine and transferred to a Perkin-Elmer Lab-Chip EZ-Reader instrument for analysis. Separation conditions were: downstream voltage of −500 V, upstream voltage of −2500 V, and a pressure of −1.5 psi. Percent conversion was calculated by ratiometric measurement of substrate/product peak heights. Percent activity represents the percent conversion of KAT reactions treated with inhibitors relative to untreated control KAT reactions, and corrected for nonenzymatic acetylation. Dose-response analysis of p300 inhibition was performed in triplicate and analyzed by nonlinear least-squares regression fit to Y = 100/(1 + 10∧(Log IC50 – X)*H), where H = Hill slope (variable). IC50 values represent the concentration that inhibits 50% of KAT activity. Calculations were performed using Prism 6 (GraphPad) software.

acetyl p53K382 = experiment: Acetylation of overexpressed p53 in HEK293T cells, Western blot; type: cell-based; settings: HEK293T transfected with p300 and p53, 24 hr
Description: Figure 2.

p300 [3] = molecular target: T1, p300; experiment: In vitro HAT assay with recombinant p300, histones and 14C acetyl-CoA; type: biochemical; settings: for IC50: in vitro HAT assay, recombinant p300 and histones, read-out: IC50, p300 acetyltransferase activity
Procedure: To determine whether salicylate inhibits p300 and other acetyltransferases, we used in vitro acetylation assays with purified histones and a recombinant p300 catalytic domain.
as §1
Recombinant HAT ([…]), either p300, CBP, PCAF, or GCN5 (Enzo Life Sciences), and 10 µg of histones (Sigma) were incubated with sodium salicylate (Sigma) in reaction buffer (50 mM HEPES, pH 8.0, 10% glycerol, 1 mM) at 30°C for 30 min and then with 0.1 mCi of ^14C acetyl-CoA at 30°C for 60 min. Reactions were stopped by adding 6x sample buffer and analyzed by SDS-PAGE. The gels were dried, and signals were obtained by autoradiography and quantified with Image J software. To quantify acetylated histone levels, we generated a standard curve from signals of lanes loaded with […] of ^14C labeled histones.

| SMILES | Plasma concentrations of diflunisal ([1]; after daily oral administration, ref Nuernberg et al., 1991, Mano et al., 2006) [µM] | IC50 (p300 [2]) [mM] | Acetylation of p53 K382 (acetyl p53K382) | IC50 (p300 [3]) [mM] | Plasma concentrations of salicylate ([1]; humans after oral administration, ref Goldfine et al., 2010, 2013) [µM] | Salicylate plasma concentrations in patients ([1]; patients taking salicylic acid 3–4 g/day, no reference given) [mM] | Mode of p300 inhibition against acetyl-CoA (p300 [3]; Lineweaver-Burk, various concentrations of acetyl-CoA) | Mode of p300 inhibition against histones (p300 [3]; Lineweaver-Burk, various concentrations of histone) |
| --- | --- | --- | --- | --- | --- | --- | --- | --- |
| O=C(O)c1cc(-c2ccc(F)cc2F)ccc1O [diflunisal] | 150 to 350 | 1.05 | suppressed acetylation | 0.996 | – | – | – | – |
| O=C(O)c1ccccc1O [salicylate, salicylic acid] | – | 6.12 | decreased acetylation | 10.2 | 1000 to 3000 | 1 to 3 | direct competitive p300 inhibition against acetyl-CoA | noncompetitive inhibition against histones |
